From patent US5106407A, “Iodones and methods for antimicrobial use” (priority 1989, dated 1992)

How the values were obtained:
[1] = test system: bacteria listed in Table I, Klebsiella oxytoca, Enterobacter gergoviae, Pseudomonas putida #1, and Pseudomonas putida #2; experiment: hand creme preservation test
Protocol: (§1) Fifty gram aliquots of the latex were placed in sterile bottles and one hundred gram aliquots of the diluted cutting oil were placed in 250-mL Erlenmeyer flasks. An appropriate amount of a fresh 1 percent stock solution of (2-nitrophenyl)-iodonium 2,2-dimethyl-4,6-dioxo-1,3-dioxan-5-ylide in acetone-water was added to achieve the desired final concentrations (see Tables 5 and 6). A small portion of the respective latex or cutting oil preparation was then streaked onto Tryptic Soy Agar (TSA) petri plates using sterile cotton swabs to determine whether the preparations were sterile. If the particular preparation was sterile, it was then inoculated with an appropriate volume (0.1 mL for the latex and 0.2 mL for the cutting oil) of a mixture of equal aliquots of 24 hr cultures of each of the bacterial organisms listed in Table 1 (not the fungi and yeast). The latex samples were incubated at 30° C. and the cutting oils were agitated on a rotary shaker at room temperature. After 24 hr, all samples were again streaked on TSA. All plates were then incubated at 30° C. for 48 hr and then rated 1 to 10 according to the growth rating system described in Table 4.
(§2) The results from this first set of streaks after inoculation are listed in the columns labeled streak number 1 in Tables 5 and 6. Samples with a rating of 3 or less from streak number 1 were reinoculated as described for the first inoculation above. Samples with a rating of 4 or greater were not reinoculated. After another 24 hr all samples were again restreaked on TSA agar. The results from these second streaks were labeled streak number 2 in Tables 5 and 6. Samples were reinoculated and restreaked in this fashion for a maximum of 10 streaks. Any samples with two streaks in a row with a ten rating were not restreaked again.
(§3) The ingredients of the hand creme, hand lotion, and protein shampoo are listed in Tables 7, 8 and 9, respectively. In the cosmetic preservative procedures, the stock solution of (2-nitrophenyl)-iodonium 2,2-dimethyl-4,6-dioxo-1,3-dioxan-5-ylide) was made in dimethylformamide (DMF)/water solution. In addition to the bacteria listed in Table I, the following bacteria were also included in the inocula: Klebsiella oxytoca, Enterobacter gergoviae, Pseudomonas putida #1, and Pseudomonas putida #2.

[2] = test system: bacteria listed in Table I, Klebsiella oxytoca, Enterobacter gergoviae, Pseudomonas putida #1, and Pseudomonas putida #2; experiment: protein shampoo preservation test
Protocol: as §1, §2, §3

CC1(C)OC(=O)[C-]([I+]c2ccccc2[N+](=O)[O-])C(=O)O1 [Example 19, (2-Nitrophenyl)-iodonium 2,2-dimethyl-4,6-dioxo-1,3-dioxan-5-ylide]
growth rating ([1]; 10 ppm, streak 1): 1 (0)
growth rating ([1]; 10 ppm, streak 2): 1 (0)
growth rating ([1]; 10 ppm, streak 3): 1 (0)
growth rating ([1]; 10 ppm, streak 4): 1 (0)
growth rating ([1]; 10 ppm, streak 5): 1 (0)
growth rating ([1]; 10 ppm, streak 6): 5 (26-50)
growth rating ([1]; 10 ppm, streak 7): 1 (0)
growth rating ([1]; 10 ppm, streak 8): 8 (210-300)
growth rating ([1]; 10 ppm, streak 9): 1 (0)
growth rating ([1]; 10 ppm, streak 10): 7 (101-200)
growth rating ([1]; 50 ppm, streak 1): 1 (0)
growth rating ([1]; 50 ppm, streak 2): 1 (0)
growth rating ([1]; 50 ppm, streak 3): 1 (0)
growth rating ([1]; 50 ppm, streak 4): 1 (0)
growth rating ([1]; 50 ppm, streak 5): 1 (0)
growth rating ([1]; 50 ppm, streak 6): 1 (0)
growth rating ([1]; 50 ppm, streak 7): 1 (0)
growth rating ([1]; 50 ppm, streak 8): 1 (0)
growth rating ([1]; 50 ppm, streak 9): 1 (0)
growth rating ([1]; 50 ppm, streak 10): 7 (101-200)
growth rating ([1]; 100 ppm, streak 1): 1 (0)
growth rating ([1]; 100 ppm, streak 2): 1 (0)
growth rating ([1]; 100 ppm, streak 3): 1 (0)
growth rating ([1]; 100 ppm, streak 4): 1 (0)
growth rating ([1]; 100 ppm, streak 5): 1 (0)
growth rating ([1]; 100 ppm, streak 6): 1 (0)
growth rating ([1]; 100 ppm, streak 7): 1 (0)
growth rating ([1]; 100 ppm, streak 8): 1 (0)
growth rating ([1]; 100 ppm, streak 9): 4 (11-25)
growth rating ([1]; 100 ppm, streak 10): 7 (101-200)
growth rating ([2]; 10 ppm, streak 1): 1 (0)
growth rating ([2]; 10 ppm, streak 2): 1 (0)
growth rating ([2]; 10 ppm, streak 10): 1 (0)
growth rating ([2]; 25 ppm, streak 1): 1 (0)
growth rating ([2]; 25 ppm, streak 2): 1 (0)
growth rating ([2]; 25 ppm, streak 3): 1 (0)
growth rating ([2]; 25 ppm, streak 4): 1 (0)
growth rating ([2]; 25 ppm, streak 5): 1 (0)
growth rating ([2]; 25 ppm, streak 6): 1 (0)
growth rating ([2]; 25 ppm, streak 7): 1 (0)
growth rating ([2]; 25 ppm, streak 8): 1 (0)
growth rating ([2]; 25 ppm, streak 9): 1 (0)
growth rating ([2]; 25 ppm, streak 10): 1 (0)
growth rating ([2]; 50 ppm, streak 1): 1 (0)
growth rating ([2]; 50 ppm, streak 2): 1 (0)
growth rating ([2]; 50 ppm, streak 3): 1 (0)
growth rating ([2]; 50 ppm, streak 4): 1 (0)
growth rating ([2]; 50 ppm, streak 5): 1 (0)
growth rating ([2]; 50 ppm, streak 6): 1 (0)
growth rating ([2]; 50 ppm, streak 7): 1 (0)
growth rating ([2]; 50 ppm, streak 8): 1 (0)
growth rating ([2]; 50 ppm, streak 9): 1 (0)
growth rating ([2]; 50 ppm, streak 10): 1 (0)
growth rating ([2]; 100 ppm, streak 1): 1 (0)
growth rating ([2]; 100 ppm, streak 2): 1 (0)
growth rating ([2]; 100 ppm, streak 3): 1 (0)
growth rating ([2]; 100 ppm, streak 4): 1 (0)
growth rating ([2]; 100 ppm, streak 5): 1 (0)
growth rating ([2]; 100 ppm, streak 6): 1 (0)
growth rating ([2]; 100 ppm, streak 7): 1 (0)
growth rating ([2]; 100 ppm, streak 8): 1 (0)
growth rating ([2]; 100 ppm, streak 9): 1 (0)
growth rating ([2]; 100 ppm, streak 10): 4 (11-25)
